# Reference: article PMC10145360, “Antiplatelet Aggregation Properties of Cirsilineol: A Novel Inhibitor of Blood Coagulation Factor Xa” (Pharmaceuticals, 2023)
# Marks after values point to notes of the source that are not given here.
# Tests used:
# [1] = system: FeCl3-induced carotid artery thrombosis; assay: FeCl3-induced carotid artery thrombosis model; type: in vivo, mouse; details: mice
# Method: A mouse model of FeCl3-induced thrombosis was created and used. Male C57BL/6 mice were starved for the entire night before receiving intravenous injections of the relevant drug in 0.2 mL of DMSO and were allowed to sleep. The carotid artery of the animal was exposed. The adventitial surface was covered with a cotton thread (200 μm in diameter) soaked in FeCl3 solution (0.25 M) for 5 min. The wound was flushed with saline solution once the thread had been removed. […] We measured the size and rate of thrombus formation, and we graded our results as follows: no thrombus or small thrombus (75–50 μm), medium thrombus (150–100 μm), massive thrombus (300–200 μm), and more than three thrombi. It was also noted how long it took for an extensive thrombus to obstruct the carotid artery following endothelial damage caused by FeCl3.
# platelets = details: cited from earlier work
# [2] = system: collagen and epinephrine-induced pulmonary thrombosis; assay: Acute pulmonary thrombosis induced by collagen and epinephrine; type: in vivo, mouse; details: for Mortality %: then collagen + epinephrine, mice; for Scored thrombus formation (Thrombi), lung: graded as thrombi per 25 mm^2 lung field
# Method: Mice were separated into several groups after being fasted overnight (10 animals each). CSL was dissolved in DMSO and given intravenously to each mouse. After 1 h, the animals received an injection of collagen and epinephrine mixture (500 μg/kg each) to induce acute thrombosis. Each mouse was closely observed for 15 min to see if it had recovered from the acute thrombosis challenge, had been paralyzed, or had passed away. H&E-stained lung tissue slices from five mice were randomly selected for the histologic investigation to determine the extent of pulmonary thrombus development. The number of arteries greater than 20 μm in diameter with any detectable thrombus was counted in each of the five view fields randomly selected from the left lobe in each section (one section per mouse). Twenty-five fields for each group were compared as a result. A total of 60–80 vessels in each segment were imaged using the system (Leica, Germany). The results were graded as the number of thrombi per 25 mm^2 lung field as previously described.
# [3] = system: platelet-poor plasma (PPP); assay: In vitro aPTT clotting time in platelet-poor plasma; parameters: species or system human; details: PPP incubated 15 min
# Method: (§1) Figure 2 Effects of CSL on clotting time. (A) Platelet-poor plasma (PPP) was incubated with the indicated concentrations of CSL or rivaroxaban (Riva) for 15 min. (B) One hour after administering DMSO, CSL, or Riva, blood was collected from the mice, and PPP was obtained. Then, in vitro aPTT (A) or ex vivo aPTT was measured, as described in the Methods sections. Data are shown as mean values ± SD of five independent experiments. * p < 0.05 vs. D. D = 0.2% DMSO, used as the vehicle control.
# (§2) Ten fasting healthy volunteers (aged 24–28; six women and four men) who were free of allergies, cardiovascular problems, carbohydrate, or lipid metabolic abnormalities and had not taken any morning medication had their blood samples taken. None of our subjects used addictive drugs or antioxidant food supplements, and their diets were well balanced. The plasma from the blood samples was immediately spun down (1300× g for 15 min) to separate it from sodium citrate (10.9 mM) and pooled for the following investigations. Next, human blood samples were spun down at room temperature to rapidly separate the PRP. The PRP concentration was adjusted to 1 × 10^9 platelets/mL using a hemocytometer. After being rinsed once in HEPES buffer containing 1 mM CaCl2, the PRP pellet was maintained at room temperature for an additional 30 min. Then, 10 mL of the platelet samples were utilized to measure each clotting time point. The IRB of Kyungpook National University Hospital (Daegu, Republic of Korea) approved this study protocol (KNUH 2012-01-010).
# Plasma was taken by centrifuging blood (2000× g for 10 min) at room temperature following dimethyl sulfoxide (DMSO) or CSL administration for 1 h to assess PT and aPTT using a thrombotimer (Behnk Elektronik, Norderstedt, Germany). Micronized silica was utilized as an activator for the aPTT test. Briefly, 100 μL of platelet-poor plasma (PPP) and 100 μL of aPTT assay reagent were combined for 1 min at 37 °C, 100 µL of CaCl2 (20 mM) was added, and the clotting times were noted. […] Next, the clotting time was measured.
# [4] = system: human platelet-rich plasma (PRP); assay: In vitro agonist-induced platelet aggregation (aggregometer); type: cell-based
# Method: Figure 3 Effects of CSL on agonist-induced platelet aggregation. Platelet-rich plasma (PRP) was preincubated for 5 min with different concentrations of CSL, Riva, or the vehicle. […] Data are shown as mean values ± SD of five independent experiments. * p < 0.05 vs. D. D = 0.2% DMSO, used as the vehicle control.
# as §2
# CSL dissolved in DMSO was incubated with human PRP for a specified time (1, 3, 5, or 10 min). […]
# [5] = system: platelet-poor plasma (PPP); assay: Prothrombin time (PT) after administration to mice; type: in vivo, mouse; details: administered to mice; data not shown
# Method: (§3) First, the potential cytotoxicity of […] on HUVECs was assessed using the 3-(4,5-dimethylthiazol-2-yl)-2,5-diphenyltetrazolium bromide (MTT) assay. […] The activated partial thromboplastin time (aPTT) and prothrombin time (PT), two coagulation parameters altered by CSL in vitro, were assessed first. We used the direct FXa inhibitor rivaroxaban as a positive control for our experiments. […] In the aPTT experiments, rivaroxaban at 8.38 μM and CSL at 7.23 μM, respectively, doubled the clotting time. Each mouse group (n = 5) received intravenous injections of CSL for 4 consecutive days to validate the in vitro results in an ex vivo experiment. […] In the ex vivo aPTT assays, treatment with CSL at 0.25 mg/kg and rivaroxaban at 0.29 mg/kg, respectively, doubled the clotting time. The average blood volume was determined to be 2 mL based on an estimated circulating blood volume for mice of 72 mL/kg and an average weight of 27 g for each animal used in this investigation. As a result, the estimated concentration of CSL in the peripheral blood after each injection ([…]) was 2.5, 5, 10, or 20 μM, respectively.
# (§4) Plasma was taken by centrifuging blood (2000× g for 10 min) at room temperature following dimethyl sulfoxide (DMSO) or CSL administration for 1 h to assess PT and aPTT using a thrombotimer (Behnk Elektronik, Norderstedt, Germany). […] Next, the clotting time was measured.
# [6] = system: platelet-poor plasma (PPP); assay: Ex vivo aPTT clotting time after intravenous injection; type: in vivo, mouse; details: mice, intravenous
# Method: as §3, §1
# Male C57BL/6 mice aged 7 weeks (mean weight: 27 g) were purchased from Orient Bio Co., in Sungnam, Republic of Korea, and were subjected to a 12-day acclimatization phase. […]
# as §4
smiles,measurement,setting,value
"O=C(NC[C@H]1CN(c2ccc(N3CCOCC3=O)cc2)C(=O)O1)c1ccc(Cl)s1 [Rivaroxaban, rivaroxaban, reference compound]",Scored thrombus formation,[1]; 0.13 mg/kg intravenous,3.5 ± 0.1
same,Time to Large Thrombus Formation,[1]; 0.13 mg/kg intravenous,15.3 ± 1.1 min
same,Scored thrombus formation,[1]; 0.26 mg/kg intravenous,3.1 ± 0.3
same,Time to Large Thrombus Formation,[1]; 0.26 mg/kg intravenous,21.8 ± 1.9 min
same,Scored thrombus formation,[1]; 0.51 mg/kg intravenous,2.3 ± 0.1
same,Time to Large Thrombus Formation,[1]; 0.51 mg/kg intravenous,44.3 ± 3.1 min
same,platelet aggregation,platelets; blood taken from patients on rivaroxaban treatment,decreased platelet aggregation
same,"platelet aggregation brought on by collagen, ADP, thromboxane A2, or thrombin",platelets; previous studies,not to affect
same,Mortality %,[2]; 0.13 mg/kg intravenous,85 ^# %
same,"Scored thrombus formation (Thrombi), lung",[2]; 0.13 mg/kg intravenous,3.1 ± 0.1
same,Mortality %,[2]; 0.26 mg/kg intravenous,75 ^# %
same,"Scored thrombus formation (Thrombi), lung",[2]; 0.26 mg/kg intravenous,2.6 ± 0.1
same,Mortality %,[2]; 0.51 mg/kg intravenous,55 ^# %
same,"Scored thrombus formation (Thrombi), lung",[2]; 0.51 mg/kg intravenous,1.9 ± 0.2
same,concentration that doubled the clotting time (in vitro aPTT),[3],8.38 µM
same,platelet aggregation induced by ADP,[4]; ADP 10 μM,did not affect
same,platelet aggregation induced by U46619,[4]; U46619 6 μM,did not affect
same,platelet aggregation induced by collagen,[4]; collagen 1 μg/mL,did not affect
same,platelet aggregation induced by thrombin,[4]; thrombin 3 U/mL,did not affect
same,PT,[5],did not change
same,dose that doubled the clotting time (ex vivo aPTT),[6],0.29 mg/kg
